Data published in patent US12441726B2, “Compounds and uses thereof” (Foghorn Therapeutics Inc., priority 2020, dated 2025).

Tests used:
BRG-1 = BRG-1 (Homo sapiens, UniProt P51532); test: ATPase catalytic activity assay (ADP-Glo), BRG-1; settings: for Emax: 1 h, read-out: BRG1 Max % Inhibition, ADP-Glo, 30 nM BRG-1, 400 μM ATP
BRM = BRM (Homo sapiens, UniProt P51531); test: ATPase catalytic activity assay (ADP-Glo), BRM; settings: 30 nM BRM, 400 μM ATP; for IC50: BRM ATPase: IC50 (uM)
Sequence of BRM (P51531 whole entry): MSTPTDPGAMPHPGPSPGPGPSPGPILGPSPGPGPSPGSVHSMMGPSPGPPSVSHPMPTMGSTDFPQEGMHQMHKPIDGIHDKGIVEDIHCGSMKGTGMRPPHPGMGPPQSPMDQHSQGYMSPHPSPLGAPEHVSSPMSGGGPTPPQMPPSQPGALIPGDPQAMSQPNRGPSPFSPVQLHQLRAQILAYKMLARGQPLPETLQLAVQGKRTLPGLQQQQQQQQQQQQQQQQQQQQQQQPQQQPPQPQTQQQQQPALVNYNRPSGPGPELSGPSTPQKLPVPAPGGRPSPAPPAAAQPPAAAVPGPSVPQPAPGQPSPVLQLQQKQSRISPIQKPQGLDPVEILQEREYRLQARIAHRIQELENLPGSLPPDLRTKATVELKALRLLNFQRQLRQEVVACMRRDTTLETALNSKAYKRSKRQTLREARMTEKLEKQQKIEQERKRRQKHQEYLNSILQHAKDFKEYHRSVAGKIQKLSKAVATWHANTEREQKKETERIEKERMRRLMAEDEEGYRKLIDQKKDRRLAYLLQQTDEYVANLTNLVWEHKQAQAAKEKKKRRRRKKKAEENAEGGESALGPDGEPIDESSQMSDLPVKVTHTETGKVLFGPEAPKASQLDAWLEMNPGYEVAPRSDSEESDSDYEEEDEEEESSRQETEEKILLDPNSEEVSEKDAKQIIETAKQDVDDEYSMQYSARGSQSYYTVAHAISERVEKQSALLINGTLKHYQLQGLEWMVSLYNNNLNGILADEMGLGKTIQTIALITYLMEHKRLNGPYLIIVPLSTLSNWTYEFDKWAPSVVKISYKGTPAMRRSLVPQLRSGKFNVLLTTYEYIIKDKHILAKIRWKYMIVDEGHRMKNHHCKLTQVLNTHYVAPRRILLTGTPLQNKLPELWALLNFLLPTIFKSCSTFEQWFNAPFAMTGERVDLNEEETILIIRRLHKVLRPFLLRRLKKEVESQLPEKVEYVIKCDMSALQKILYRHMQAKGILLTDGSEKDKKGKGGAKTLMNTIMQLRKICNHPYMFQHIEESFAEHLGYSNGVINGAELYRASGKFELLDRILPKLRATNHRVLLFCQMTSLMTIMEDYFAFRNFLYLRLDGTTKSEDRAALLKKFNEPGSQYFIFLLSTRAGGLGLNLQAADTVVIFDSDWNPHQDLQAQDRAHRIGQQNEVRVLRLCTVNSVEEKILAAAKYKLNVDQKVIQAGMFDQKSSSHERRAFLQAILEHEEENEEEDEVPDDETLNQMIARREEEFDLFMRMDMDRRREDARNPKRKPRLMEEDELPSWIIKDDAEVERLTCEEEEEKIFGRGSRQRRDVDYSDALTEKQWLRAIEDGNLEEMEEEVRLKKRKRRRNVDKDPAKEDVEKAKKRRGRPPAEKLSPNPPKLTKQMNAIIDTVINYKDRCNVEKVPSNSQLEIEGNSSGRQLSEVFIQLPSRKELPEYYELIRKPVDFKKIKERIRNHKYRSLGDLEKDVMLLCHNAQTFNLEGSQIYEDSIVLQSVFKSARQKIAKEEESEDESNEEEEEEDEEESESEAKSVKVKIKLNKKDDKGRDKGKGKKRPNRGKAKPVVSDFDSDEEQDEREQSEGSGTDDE

Sequence of BRG-1 (P51532 whole entry): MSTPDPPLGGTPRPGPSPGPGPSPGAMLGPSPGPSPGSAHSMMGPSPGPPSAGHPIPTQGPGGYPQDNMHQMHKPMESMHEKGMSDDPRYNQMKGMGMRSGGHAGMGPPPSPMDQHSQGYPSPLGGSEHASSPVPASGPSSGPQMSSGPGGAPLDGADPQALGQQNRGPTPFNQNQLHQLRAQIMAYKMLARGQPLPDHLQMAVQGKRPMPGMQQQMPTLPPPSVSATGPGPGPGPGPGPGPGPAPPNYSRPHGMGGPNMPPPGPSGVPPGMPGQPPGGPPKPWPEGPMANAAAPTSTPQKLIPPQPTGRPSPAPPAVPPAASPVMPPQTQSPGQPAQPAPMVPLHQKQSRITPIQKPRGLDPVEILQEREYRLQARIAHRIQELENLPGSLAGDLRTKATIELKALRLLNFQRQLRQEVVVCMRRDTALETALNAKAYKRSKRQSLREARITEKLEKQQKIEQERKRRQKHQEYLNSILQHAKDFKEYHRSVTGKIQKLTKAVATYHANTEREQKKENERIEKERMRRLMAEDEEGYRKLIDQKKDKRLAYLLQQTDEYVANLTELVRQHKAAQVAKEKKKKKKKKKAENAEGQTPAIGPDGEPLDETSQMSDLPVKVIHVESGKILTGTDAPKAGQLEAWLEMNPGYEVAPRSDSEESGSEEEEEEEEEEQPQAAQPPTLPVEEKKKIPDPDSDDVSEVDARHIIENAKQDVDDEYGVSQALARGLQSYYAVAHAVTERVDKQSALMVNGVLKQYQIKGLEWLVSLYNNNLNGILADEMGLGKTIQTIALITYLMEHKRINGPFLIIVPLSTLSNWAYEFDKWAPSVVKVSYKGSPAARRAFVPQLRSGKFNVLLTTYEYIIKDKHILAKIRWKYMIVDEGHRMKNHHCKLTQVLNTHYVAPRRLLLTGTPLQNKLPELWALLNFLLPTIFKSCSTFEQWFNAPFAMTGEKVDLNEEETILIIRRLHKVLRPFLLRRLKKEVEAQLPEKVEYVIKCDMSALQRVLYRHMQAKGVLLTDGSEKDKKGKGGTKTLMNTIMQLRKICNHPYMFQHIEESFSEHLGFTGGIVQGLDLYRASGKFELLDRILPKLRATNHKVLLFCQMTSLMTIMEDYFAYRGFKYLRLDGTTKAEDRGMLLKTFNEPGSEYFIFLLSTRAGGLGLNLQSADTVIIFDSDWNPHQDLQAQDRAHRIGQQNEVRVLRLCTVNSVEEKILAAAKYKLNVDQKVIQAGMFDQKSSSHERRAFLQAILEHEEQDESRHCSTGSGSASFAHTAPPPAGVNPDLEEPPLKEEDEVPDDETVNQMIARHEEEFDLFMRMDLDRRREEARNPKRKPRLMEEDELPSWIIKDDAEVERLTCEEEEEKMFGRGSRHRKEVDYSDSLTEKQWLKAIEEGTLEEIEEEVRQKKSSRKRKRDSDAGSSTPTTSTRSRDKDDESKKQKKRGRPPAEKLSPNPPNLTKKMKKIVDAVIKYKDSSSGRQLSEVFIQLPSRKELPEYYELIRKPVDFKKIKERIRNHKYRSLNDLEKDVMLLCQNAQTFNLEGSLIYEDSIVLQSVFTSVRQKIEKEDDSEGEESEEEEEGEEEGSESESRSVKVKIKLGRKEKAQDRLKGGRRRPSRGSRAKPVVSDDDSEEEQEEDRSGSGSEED

Compound	IC50 (BRG-1)	Emax (BRG-1)	BRM Max % Inhibition (BRM)	IC50 (BRM)
CN1CCN(c2nccc(-c3ccc4cnc(CNC(=O)c5ccc6c(c5)[C@](C)(F)COC6)cc4n3)n2)CC1=O [Compound 267]	100 to 500 nM	88%	103%	< 0.1 µM
C[C@@]1(F)COCc2c(F)cc(C(=O)NCc3cc4cc(-c5cncc(N6CCC6)n5)ccc4cn3)cc21 [Compound 269]	100 to 500 nM	97%	104%	< 0.1 µM
C[C@@]1(C#N)COCc2c(F)cc(C(=O)NCc3cc4cc(-c5cncc(N6CCC6)n5)ccc4cn3)cc21 [Compound 270]	< 100 nM	98%	104%	< 0.1 µM
C[C@@]1(F)COCc2ccc(C(=O)NCc3cc4nc(-c5cccc(C6(O)CC6)n5)ccc4cn3)cc21 [Compound 271]	100 to 500 nM	95%	104%	< 0.1 µM
C[C@@]1(F)COCc2ccc(C(=O)NCc3cc4nc(-c5cccc(N=S(C)(C)=O)n5)ccc4cn3)cc21 [Compound 273]	500 to 1000 nM	64%	98%	0.1 to 0.5 µM
COc1nn(C)cc1-c1nc2cc(CNC(=O)c3ccc4c(c3)[C@](C)(C#N)COC4)ncc2s1 [Compound 274]	500 to 1000 nM	45%	93%	0.1 to 0.5 µM
COc1nn(C)cc1-c1ccc2nnc(CNC(=O)c3ccc4c(c3)[C@](C)(F)COC4)cc2n1 [Compound 275]	500 to 1000 nM	77%	96%	< 0.1 µM
C[C@@]1(F)COCc2ccc(C(=O)NCc3cc4nc(-c5cncc(N6CCC6)n5)ccc4nn3)cc21 [Compound 276]	100 to 500 nM	95%	98%	< 0.1 µM
C[C@@]1(F)COCc2ccc(C(=O)NCc3cc4nc(-c5ccccc5)ccc4nn3)cc21 [Compound 277]	500 to 1000 nM	69%	96%	0.1 to 0.5 µM
C[C@@]1(F)COCc2ccc(C(=O)NCc3cc4nc(N5CCN(C6CC6)S5(=O)=O)ccc4cn3)cc21 [Compound 279]	500 to 1000 nM	67%	83%	0.1 to 0.5 µM
C[C@@]1(C#N)COCc2ccc(C(=O)NCc3cc4cc(-c5ccnc(C6CC6)c5F)cnc4cn3)cc21 [Compound 280]	100 to 500 nM	82%	96%	0.1 to 0.5 µM
C[C@@]1(C#N)COCc2ccc(C(=O)NCc3cc4nc(-c5ccnc(N6CC7CC(C6)O7)n5)ccc4cn3)cc21 [Compound 284]	100 to 500 nM	93%	99%	< 0.1 µM
C[C@@]1(C#N)COCc2ccc(C(=O)NCc3cc4c(cn3)CCN(c3ccccn3)C4)cc21 [Compound 286]	> 1000 nM	43%	85%	0.1 to 0.5 µM
Cn1cc(-c2nc3cc(CNC(=O)c4ccc5c(c4)[C@](C)(C#N)COC5)ncc3s2)cn1 [Compound 289]	> 1000 nM	41%	90%	0.1 to 0.5 µM
C[C@@]1(F)COCc2ncc(C(=O)NCc3cc4nc(-c5ccccc5)sc4cn3)cc21 [Compound 290]	500 to 1000 nM	53%	94%	0.1 to 0.5 µM
C[C@@]1(F)COCc2ccc(C(=O)NCc3cc4nc(-c5ccnc(N6CCN(C7COC7)CC6)n5)ccc4cn3)cc21 [Compound 292]	100 to 500 nM	94%	99%	< 0.1 µM
C[C@@]1(F)COCc2ncc(C(=O)NCc3cc4nc(-c5ccnc(N6CCC6)c5F)ccc4cn3)cc21 [Compound 296]	100 to 500 nM	88%	100%	< 0.1 µM
C[C@@]1(C#N)COCc2ccc(C(=O)NCc3cc4c(cn3)CCN(c3cncc(N5CCC5)n3)C4)cc21 [Compound 298]	100 to 500 nM	82%	99%	< 0.1 µM

More lines, now with the values ahead:

IC50 (BRG-1)	Emax (BRG-1)	BRM Max % Inhibition (BRM)	IC50 (BRM)	Compound
500 to 1000 nM	67%	97%	0.1 to 0.5 µM	C[C@@]1(F)COCc2ccc(C(=O)NCc3cc4nc(-c5ccnn(C6CC6)c5=O)ccc4cn3)cc21 [Compound 268]
100 to 500 nM	95%	104%	< 0.1 µM	C[C@@]1(C#N)COCc2ccc(C(=O)NCc3cc4cc(-c5ccnc(N6CCC6)c5F)ccc4cn3)cc21 [Compound 272]
100 to 500 nM	96%	101%	< 0.1 µM	COCCOCCC(=O)N1CCN(c2cccc(-c3ccc4cnc(CNC(=O)c5ccc6c(c5)[C@](C)(C#N)COC6)cc4n3)n2)CC1 [Compound 278]
> 1000 nM	48%	92%	0.1 to 0.5 µM	CN(C)c1cccn(-c2ccc3cnc(CNC(=O)c4ccc5c(c4)[C@](C)(C#N)COC5)cc3n2)c1=O [Compound 281]
> 1000 nM	45%	87%	0.1 to 0.5 µM	C[C@@]1(C#N)COCc2ccc(C(=O)NCc3cc4nc(-n5cccc(C6CC6)c5=O)ccc4cn3)cc21 [Compound 282]
500 to 1000 nM	63%	96%	0.1 to 0.5 µM	C[C@@]1(C#N)COCc2ccc(C(=O)NCc3cc4nc(-n5cccc(N6CCC6)c5=O)ccc4cn3)cc21 [Compound 283]
100 to 500 nM	92%	98%	< 0.1 µM	C[C@@]1(C#N)COCc2ccc(C(=O)NCc3cc4nc(-c5ccnc(N6CC7CC6C7)n5)ccc4cn3)cc21 [Compound 285]
500 to 1000 nM	99%	99%	< 0.1 µM	CN1CCC(C(=O)N2CCN(c3cccc(-c4ccc5cnc(CNC(=O)c6ccc7c(c6)[C@](C)(C#N)COC7)cc5n4)n3)CC2)CC1 [Compound 287]
100 to 500 nM	98%	101%	< 0.1 µM	COCCC(=O)N1CCN(c2cccc(-c3ccc4cnc(CNC(=O)c5ccc6c(c5)[C@](C)(C#N)COC6)cc4n3)n2)CC1 [Compound 288]
< 100 nM	97%	100%	< 0.1 µM	C[C@@]1(C#N)COCc2ccc(C(=O)NCc3cc4nc(-c5cncc(N6CC[C@@H](F)C6)n5)ccc4cn3)cc21 [Compound 291]
> 1000 nM	33%	88%	0.1 to 0.5 µM	Cn1nccc(-c2ccc3cnc(CNC(=O)c4ccc5c(c4)[C@](C)(F)COC5)cc3n2)c1=O [Compound 293]
100 to 500 nM	86%	100%	< 0.1 µM	C[C@@]1(C#N)COCc2ccc(C(=O)NCc3cc4cc(-c5ccnc(N6CCC6)c5F)cnc4cn3)cc21 [Compound 294]
100 to 500 nM	93%	100%	< 0.1 µM	C[C@@]1(F)COCc2ccc(C(=O)NCc3cc4nc(-c5cccc(N6CCC6)n5)ccc4cn3)cc21 [Compound 295]
500 to 1000 nM	66%	96%	0.1 to 0.5 µM	COc1cnn(C)c1-c1ccc2cnc(CNC(=O)c3ccc4c(c3)[C@](C)(C#N)COC4)cc2n1 [Compound 297]
